Measured values as given in patent publication US7981401B2, “Diuretic aerosols and methods of making and using them” (priority 2002, dated 2011).

How the values were obtained:
[1] = Volatilization on flashbar and HPLC purity analysis of the condensation aerosol; assay type: physicochemical; conditions: heated to about 400° C. within about 200 ms, 15 L/min air
Text: Purity of a diuretic containing aerosol may be determined using a number of different methods. It should be noted that when the term “purity” is used, it refers to the percentage of aerosol minus the percent byproduct produced in its formation. Byproducts for example, are those unwanted products produced during vaporization. For example, byproducts include thermal degradation products as well as any unwanted metabolites of the active compound or compounds. Examples of suitable methods for determining aerosol purity are described in Sekine et al., Journal of Forensic Science 32:1271-1280 (1987) and in Martin et al., Journal of Analytic Toxicology 13:158-162 (1989).
One suitable method involves the use of a trap. In this method, the aerosol is collected in a trap in order to determine the percent or fraction of byproduct. Any suitable trap may be used. Suitable traps include filters, glass wool, impingers, solvent traps, cold traps, and the like. Filters are often most desirable. The trap is then typically extracted with a solvent, e.g. acetonitrile, and the extract subjected to analysis by any of a variety of analytical methods known in the art, for example, gas, liquid, and high performance liquid chromatography particularly useful.
(§1) About 1.1 mg of ethacrynic acid (MW 303, melting point 122° C., oral dose 25 mg) was dip coated onto the stainless steel surface of a flashbar apparatus at a thickness of about 1.32 μm. (The flashbar is a cylinder 3.5 cm long and 1.3 cm in diameter consisting of a hollow tube of 0.005″ thick stainless steel.) Brass electrodes were connected to either end of the steel cylinder. The coated flashbar was secured in an electrical mount, which connected to two 1.0 Farad capacitors in parallel. An airway was provided by a 2 cm diameter glass sleeve placed around the flashbar. 15 L/min of room air were pulled by a house vacuum through the vaporization chamber and a filter housing, which contained a two-micron Teflon filter. A power supply charged the capacitors to 20.5 volts, at which point the circuit was closed with a switch and the stainless steel flashbar was resistively heated to about 400° C. within about 200 milliseconds. The drug aerosolized and flowed through the airway and into the filter. The Teflon filter was extracted with 5 mL of acetonitrile, and the sample was run through an HPLC for purity analysis.
as §1, with “1.01” for “1.1”, “1.21” for “1.32”
About 1.09 mg of bumetanide (MW 364, melting point 231° C., oral dose 0.5 mg) was dip coated onto the stainless steel surface of a flashbar apparatus at a thickness of about 1.3 μm. (The flashbar is a cylinder 3.5 cm long and 1.3 cm in diameter consisting of a hollow tube of 0.005″ thick stainless steel.) Brass electrodes were connected to either end of the steel cylinder. The coated flashbar was secured in an electrical mount, which connected to two 1.0 Farad capacitors in parallel. […]

[2] = assay type: in vivo, Beagle dog
Text: This example is meant to illustrate one way in which toxicology and pharmacokinetic data may be investigated with respect to the bumetanide condensation aerosols described herein. Toxicology and pharmacokinetic data may be gathered by studying daily oropharyngeal inhalation of bumetanide condensation aerosols over a 14 day period using a beagle dog model.
Before treatment initiation, all animals are weighed and assigned to treatment groups using a randomization procedure. Animals are assigned into the following groups: bumetanide high dose, bumetanide mid dose, bumetanide low dose, and vehicle control at 3 animals per sex per dose. The dose levels for bumetanide are generally approximately 0.1 mg/kg for the low dose group, 0.5 mg/kg for the mid dose group, and 2 mg/kg for the high dose group. The dose levels can be refined through an initial dose ranging toxicology study.
Animals are treated with the test aerosols using an oropharyngeal face mask fitted with inlet and outlet tubes. During treatment, animals are placed in a restraint sling. A mask that allows the inhalation of test material to dogs is used. The test article is generated by vaporizing bumetanide by heating to roughly 400° C. The bumetanide is an approximately 1 micron thick film coating on a stainless steel foil, which was deposited on the foil by dip coating the foil into a solution of bumetanide dissolved in organic solvent.
The resulting aerosol formed by the condensation of the vaporized bumetanide is introduced into a mixing chamber via pre-dried compressed air. The mixing chamber is operated under slight positive pressure maintained by means of a gate valve located in the exhaust line. A vacuum pump is used to exhaust the inhalation chamber at the required flow rate and draw the contaminated air (excess aerosol and expired air) through a purifying system consisting of a 5 μm coarse filter before expelling the air from the building. The resulting atmosphere is carried to the dog mask via a delivery tube.
To ensure that the doses are correct, prior to the start of the treatment each day, atmosphere characterization of the test article aerosol is performed. Analysis of the aerosol particle size distribution for each bumetanide dose is conducted using a Cascade Impactor. Typical mass median aerodynamic diameter and geometric standard deviation measured during the study are 1.5 μm±2. Actual mask output concentrations of aerosol are measured during each exposure day from a sampling port from the animal breathing zone.
The achieved dose of active ingredient (mg/kg/day) for each treatment level is determined as follows: Achieved Dose of Active Ingredient=[RMV×Active Concentration×T×D]/BW
Where the achieved dose of the active ingredient is in mg/kg/day; the RMV (i.e., respiratory minute volume) is in L/min; the Active Concentration (i.e., chamber concentration of active ingredient determined by chemical analysis) is in mg/L; T (i.e., treatment time) is in minutes; D is the total aerosol deposition fraction, according to the particle size; and BW (i.e., mean body weight per sex per group from the regular body weight occasions during treatment) is in kg.
Dogs are treated with the bumetanide aerosol using the above approach to deliver the drug aerosol and compute the delivered dose. The exposure period required to deliver a dose is typically approximately 10 minutes. Plasma samples for pharmacokinetic analysis are collected on one or more treatment days. Samples are typically collected pre-dose, 2 minutes into dosing, and the end of dosing, 20 minutes post dose, 1 hour post dose, 3 hours post dose, 9 hours post dose, and 24 hours post dose. Samples are analyzed by an appropriate method such as LC/MS or LC/MS/MS to determine the pharmacokinetics of bumetanide absorption and elimination. […]

CCCCNc1cc(C(=O)O)cc(S(N)(=O)=O)c1Oc1ccccc1 [bumetanide]
aerosol purity (HPLC) ([1]; film about 1.3 μm on stainless steel): 98.44%
mass median aerodynamic diameter of the aerosol ([2]; Cascade Impactor, typical value during the study): 1.5 μm
food consumption ([2]; dog, in vivo): roughly normal
gross pathology at necropsy ([2]; dog, in vivo): No treatment related findings
histopathological examination of gross lesions ([2]; dog, in vivo): no treatment related findings
histopathological examination of larynx, trachea, mainstem bronchi, lungs ([2]; dog, in vivo): No treatment related abnormalities are observed
time of peak plasma levels ([2]; dog, in vivo): ≤ 10 min
duration of the increase in urination following treatment ([2]; dog, inhalation): approximately 4 hour
urination immediately following drug administration ([2]; dog, inhalation): an increase in urination is noted

C=C(CC)C(=O)c1ccc(OCC(=O)O)c(Cl)c1Cl [ethacrynic acid]
aerosol purity (HPLC) ([1]; film about 1.21 μm on stainless steel): 99.57%
aerosol purity (HPLC) ([1]; film about 1.32 μm on stainless steel): 99.83%

CC(=O)S[C@@H]1CC2=CC(=O)CC[C@]2(C)[C@H]2CC[C@@]3(C)[C@@H](CC[C@@]34CCC(=O)O4)[C@H]12 [spironolactone]
aerosol purity (HPLC) ([1]; film about 0.85 μm on stainless steel): 100%
aerosol purity (HPLC) ([1]; film about 1.01 μm on stainless steel): 100%

Nc1nc(N)c2nc(-c3ccccc3)c(N)nc2n1 [triamterene]
aerosol purity (HPLC) ([1]; film about 0.97 μm, from 88% formic acid): 99.76%
aerosol purity (HPLC) ([1]; film about 1.11 μm, manually coated): 100%
